In PubChem BioAssay AID2060508 (Molecular Pharmacology Branch, DTP, NCI, 2025):

System: 454973-116-R2-J3-PDC spheroids, viability, % test/control
Test: Anticancer human tumor 454973-116-R2-J3-PDC patient-derived pancreatic carcinoma cell line growth inhibition [GQUAD]
Settings: spheroids with HUVEC and MSC; for IC50: curve of first compound; for viability, T/C: stronger effect = lower value; active = viability on the fitted dose curve at most 10% of control; inactive = the rest
Outline: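 Viability of tumor cells grown as complex spheroids with endothelial and stromal cells, exposed to drug combinations. Top concentration at or near clinical Cmax (else 10 microM), diluted in half-log increments.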

[1] = second compound 0.0316 µM, first compound 0.0316 µM
[2] = second compound 0.0316 µM, first compound 0.1 µM
[3] = second compound 0.0316 µM, first compound 0.316 µM
[4] = second compound 0.0316 µM, first compound 1 µM
[5] = second compound 0.0316 µM, first compound 3.16 µM
[6] = second compound 0.0316 µM, first compound 10 µM
[7] = second compound 0.1 µM, first compound 0.0316 µM
[8] = second compound 0.1 µM, first compound 0.1 µM
[9] = second compound 0.1 µM, first compound 0.316 µM
[10] = second compound 0.1 µM, first compound 1 µM
[11] = second compound 0.1 µM, first compound 3.16 µM
[12] = second compound 0.1 µM, first compound 10 µM
[13] = second compound 0.316 µM, first compound 0.0316 µM
[14] = second compound 0.316 µM, first compound 0.1 µM
[15] = second compound 0.316 µM, first compound 0.316 µM
[16] = second compound 0.316 µM, first compound 1 µM
[17] = second compound 0.316 µM, first compound 3.16 µM
[18] = second compound 0.316 µM, first compound 10 µM
[19] = second compound 1 µM, first compound 0.0316 µM
[20] = second compound 1 µM, first compound 0.1 µM
[21] = second compound 1 µM, first compound 0.316 µM
[22] = second compound 1 µM, first compound 1 µM
[23] = second compound 1 µM, first compound 3.16 µM
[24] = second compound 1 µM, first compound 10 µM
[25] = second compound 3.16 µM, first compound 0.0316 µM
[26] = second compound 3.16 µM, first compound 0.1 µM
[27] = second compound 3.16 µM, first compound 0.316 µM
[28] = second compound 3.16 µM, first compound 1 µM
[29] = second compound 3.16 µM, first compound 3.16 µM
[30] = second compound 3.16 µM, first compound 10 µM
[31] = second compound 10 µM, first compound 0.0316 µM
[32] = second compound 10 µM, first compound 0.1 µM
[33] = second compound 10 µM, first compound 0.316 µM
[34] = second compound 10 µM, first compound 1 µM
[35] = second compound 10 µM, first compound 3.16 µM
[36] = second compound 10 µM, first compound 10 µM
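Also: spheroids exposed to compounds for seven days.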
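For viability, T/C in this document: 100% = DMSO vehicle control viability.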

O=C(NO)c1cnc(N2CCN(S(=O)(=O)c3ccc4ccccc4c3)CC2)nc1 + Cc1[nH]c2ccc(F)cc2c1-c1nc2c3cccnc3c3ncccc3c2[nH]1
active: viability, T/C [4] 2.53% | viability, T/C [5] 0.14% | viability, T/C [6] 0.29% | viability, T/C [10] 4.86% | viability, T/C [11] 0.14% | viability, T/C [12] 0.64% | viability, T/C [17] 0.1% | viability, T/C [18] 1.14% | viability, T/C [22] 8.33% | viability, T/C [23] 0.1% | viability, T/C [24] 0.86% | viability, T/C [29] 0.16% | viability, T/C [30] 0.16% | viability, T/C [35] 0.22% | viability, T/C [36] 0.21%
360 nM: IC50 (second compound 0.1 µM)
464 nM: IC50 (second compound 3.16 µM)
384 nM: IC50 (second compound 0.316 µM)
inactive: viability, T/C [1] 108% | viability, T/C [2] 84.8% | viability, T/C [3] 35.3% | viability, T/C [7] 108% | viability, T/C [8] 104% | viability, T/C [9] 55.7% | viability, T/C [13] 121% | viability, T/C [14] 96.2% | viability, T/C [15] 62.1% | viability, T/C [16] 10% | viability, T/C [19] 89.6% | viability, T/C [20] 92.1% | viability, T/C [21] 73% | viability, T/C [25] 105% | viability, T/C [26] 93.7% | viability, T/C [27] 66.9% | viability, T/C [28] 18.1% | viability, T/C [31] 93.6% | viability, T/C [32] 90.2% | viability, T/C [33] 76.9% | viability, T/C [34] 17.7%
221 nM: IC50 (second compound 0.0316 µM)
476 nM: IC50 (second compound 1 µM)
533 nM: IC50 (second compound 10 µM)

CC1COCCN1c1cc(-c2ccnn2C)c2ccnc(-c3ccn[nH]3)c2n1 (stereo not drawn) + Cc1cnc(CNC(=O)c2c(=O)c3ccc(N4CCCN(C)CC4)nc3n3c2sc2ccccc23)cn1
< 31.6 nM: IC50 (second compound 0.1 µM) | IC50 (second compound 0.316 µM) | IC50 (second compound 1 µM) | IC50 (second compound 3.16 µM) | IC50 (second compound 10 µM)
active: viability, T/C [31] 0.13% | viability, T/C [32] 0.16% | viability, T/C [33] 2.37% | viability, T/C [34] 0.14% | viability, T/C [35] 0.16% | viability, T/C [36] 0.17%
inactive: viability, T/C [1] 58.3% | viability, T/C [2] 26.2% | viability, T/C [3] 17.6% | viability, T/C [4] 18.5% | viability, T/C [5] 21.3% | viability, T/C [6] 21.7% | viability, T/C [7] 35.7% | viability, T/C [8] 23.1% | viability, T/C [9] 18.9% | viability, T/C [10] 14.7% | viability, T/C [11] 18.3% | viability, T/C [12] 23.3% | viability, T/C [13] 33.7% | viability, T/C [14] 20% | viability, T/C [15] 18.6% | viability, T/C [16] 16.8% | viability, T/C [17] 19.4% | viability, T/C [18] 21.6% | viability, T/C [19] 39.7% | viability, T/C [20] 27.9% | viability, T/C [21] 27% | viability, T/C [22] 24.2% | viability, T/C [23] 22.6% | viability, T/C [24] 19.5% | viability, T/C [25] 40.3% | viability, T/C [26] 34.5% | viability, T/C [27] 31.5% | viability, T/C [28] 27.2% | viability, T/C [29] 20.2% | viability, T/C [30] 20.3%
42.3 nM: IC50 (second compound 0.0316 µM)

CC1COCCN1c1cc(C2(S(C)(=N)=O)CC2)nc(-c2ccnc3[nH]ccc23)n1 (stereo not drawn) + Cc1cnc(CNC(=O)c2c(=O)c3ccc(N4CCCN(C)CC4)nc3n3c2sc2ccccc23)cn1
1420 nM: IC50 (second compound 0.1 µM)
< 31.6 nM: IC50 (second compound 10 µM)
2560 nM: IC50 (second compound 0.0316 µM)
inactive: viability, T/C [1] 104% | viability, T/C [2] 95.5% | viability, T/C [3] 96.6% | viability, T/C [4] 79.2% | viability, T/C [5] 43.2% | viability, T/C [6] 21.6% | viability, T/C [7] 90.9% | viability, T/C [8] 81.9% | viability, T/C [9] 74.2% | viability, T/C [10] 58.9% | viability, T/C [11] 33% | viability, T/C [12] 23.5% | viability, T/C [13] 70.8% | viability, T/C [14] 73% | viability, T/C [15] 64.6% | viability, T/C [16] 50.5% | viability, T/C [17] 30.3% | viability, T/C [18] 27.8% | viability, T/C [19] 62.9% | viability, T/C [20] 67.2% | viability, T/C [21] 70% | viability, T/C [22] 56.6% | viability, T/C [23] 36.1% | viability, T/C [24] 38% | viability, T/C [25] 65.9% | viability, T/C [26] 66.1% | viability, T/C [27] 59.4% | viability, T/C [28] 46.9% | viability, T/C [29] 42% | viability, T/C [30] 38.4%
957 nM: IC50 (second compound 0.316 µM)
1470 nM: IC50 (second compound 1 µM)
1060 nM: IC50 (second compound 3.16 µM)
active: viability, T/C [31] 0.26% | viability, T/C [32] 0.49% | viability, T/C [33] 0.34% | viability, T/C [34] 0.88% | viability, T/C [35] 0.61% | viability, T/C [36] 0.35%

COc1ccc([C@@H](O)c2cc(-c3ncnc4cc(N5CCOCC5)ccc34)c(F)cc2Cl)nn1 + Cc1cnc(CNC(=O)c2c(=O)c3ccc(N4CCCN(C)CC4)nc3n3c2sc2ccccc23)cn1
< 31.6 nM: IC50 (second compound 10 µM)
814 nM: IC50 (second compound 0.0316 µM)
269 nM: IC50 (second compound 0.1 µM)
416 nM: IC50 (second compound 0.316 µM)
530 nM: IC50 (second compound 1 µM)
inactive: viability, T/C [1] 104% | viability, T/C [2] 88.2% | viability, T/C [3] 72.3% | viability, T/C [4] 43.9% | viability, T/C [5] 34% | viability, T/C [6] 33.9% | viability, T/C [7] 83.5% | viability, T/C [8] 71.3% | viability, T/C [9] 46% | viability, T/C [10] 35.3% | viability, T/C [11] 32.1% | viability, T/C [12] 30.1% | viability, T/C [13] 70.8% | viability, T/C [14] 66.3% | viability, T/C [15] 49.6% | viability, T/C [16] 42% | viability, T/C [17] 40.1% | viability, T/C [18] 30.8% | viability, T/C [19] 68.2% | viability, T/C [20] 59.2% | viability, T/C [21] 55.1% | viability, T/C [22] 43.7% | viability, T/C [23] 39.8% | viability, T/C [24] 28.4% | viability, T/C [25] 69% | viability, T/C [26] 54.3% | viability, T/C [27] 61.2% | viability, T/C [28] 41.5% | viability, T/C [29] 39.7% | viability, T/C [30] 27.3%
578 nM: IC50 (second compound 3.16 µM)
active: viability, T/C [31] 0.28% | viability, T/C [32] 0.73% | viability, T/C [33] 0.4% | viability, T/C [34] 0.39% | viability, T/C [35] 0.33% | viability, T/C [36] 0.28%
